Measured values published in US10725055B1, “Compounds for carbonyl sulfide/carbon disulfide/hydrogen sulfide release and methods of making and using the same” (University of Oregon, priority 2016, dated 2020).
Entries after “also recorded” stand apart in the source; their conditions may differ. Read-outs that look alike come from different tables or passages of the source.

Assays:
[1] = tested on: BEAS 2B cells; assay: Bioenergetic analysis in cultured cells (XF24 Extracellular Flux Analyzer); format: cell-based, human; settings: for inhibition of cellular bioenergetics: same conditions, 1, 3, 10 μM; for ATP synthesis / maximal respiration / oxygen consumption linked with basal respiration: 1, 3, 10 μM, 24 hours
Excerpt: Cells were then washed with PBS.

[2] = tested on: BEAS 2B cells
[3] = tested on: BEAS 2B cells; settings: for LDH levels: 10 μM, 24 hours
Experimental: Lactate dehydrogenase (LDH) release was determined as a cytotoxicity assay, a measurement of necrotic cell death, as described previously. Briefly, 30 μL of supernatant was saved before addition of MTT and mixed with 100 μL of freshly prepared LDH assay reagent to reach final concentrations of 85 mM lactic acid, 1040 mM nicotinamide adenine dinucleotide (NAD+), 224 mM N-methylphenazonium methyl sulfate (PMS), 528 mM 2-(4-lodophenyl)-3-(4-nitrophenyl)-5-phenyl-2H-tetrazolium chloride (INT) and 200 mM Tris (pH 8.2). The changes in absorbance were read kinetically at 492 nm for 15 min (kinetic LDH assay) on a monochromator-based reader (Powerwave HT, Biotek) at 37° C. LDH activity values are shown as Vmax for the kinetic assays in mOD/min.

[4] = H2S release from azidobenzyl thiocarbamate/carbamate after TCEP reduction in presence of CA, H2S electrode; settings: buffer containing CA; for H2S release upon injection of TCEP: TCEP added
[5] = NMR monitoring of self-immolation after TCEP reduction; format: physicochemical; settings: 1H, 13C{1H}, 19F NMR
Excerpt: In some embodiments, an azide in the para position of the benzylthiocarbamate was used to function as the H2S-responsive “trigger” for self-immolation and COS release. To facilitate NMR identification of the products, azidobenzylthiocarbamate (donor compound 1 of FIG. 2) was made with a p-fluoroaniline payload, and the corresponding carbamate (donor compound 2 of FIG. 2) as a control donor compound. Although donor compound 2 should undergo the same self-immolative decomposition upon azide reduction, it will release CO2 rather than COS, and thus should not result in H2S donation upon reaction with CA. […] The disappearance of the benzylic peak, loss of the thiocarbonyl carbon peak, and formation of new resonances upon self-immolation by NMR spectroscopy (FIGS. 3A-3C) confirmed that self-immolation occurs. All such changes were observed within 5 minutes of TCEP addition, confirming the rapid self-immolation of the scaffold upon reduction, and were consistent with COS release from the thiocarbamate scaffold upon azide reduction.

[6] = H2S release from photo-triggerable compounds under UV light, methylene blue (MB) assay; settings: for peaking time for H2S release: 50 μM, LED UV light 365 nm, PBS pH 7.4, CA 25 μg/mL
[7] = H2O2-triggered H2S release from PeroxyTCM/TCM compounds, H2S electrode; settings: for H2S release upon treatment with H2O2: PBS pH 7.4, CA 25 μg/mL; for H2S release efficiency: 50 μM compound
[8] = tested on: HeLa cells; assay: Cytotoxicity in HeLa cells, CCK-8; settings: 10-100 μM, 2 hour incubation
[9] = tested on: HeLa cells; assay: Cytoprotection against H2O2-induced oxidative stress, CCK-8; format: cell-based; settings: H2O2 100 μM, compound 10-50 μM, 1 hour
[10] = tested on: porcine liver esterase (PLE); assay: Esterase (PLE)-triggered H2S release, H2S-selective electrode
[11] = Fluorescence response of MeRho-TCA to NaSH and other RSONs
[12] = target: CA from bovine erythrocytes (Bos taurus, UniProt P00921); format: biochemical
[13] = tested on: RAW 264.7 cells; settings: 50 μM compound
[14] = tested on: HeLa cells; settings: 50 μM compound
[15] = not given; remark: listed apart in the source
[16] = Total sulfide in whole mouse blood, monobromobimane (mBB) method; settings: 25 μM compound, 30 minutes incubation with excess TCEP
[17] = absence of esterase
[18] = tested on: BEAS 2B cells; remark: listed apart in the source
[19] = tested on: porcine liver esterase (PLE); assay: H2S release from 5 detected with H2S-responsive fluorescent probe MeRho-Az; settings: 50 μM compound, 5 μM MeRho-Az, CA, 1 U/mL PLE
[20] = at concentrations lower than 30 μM
[21] = COS gas in 10 mM PBS, pH 7.4, no CA

Chain of CA from bovine erythrocytes (P00921 whole entry): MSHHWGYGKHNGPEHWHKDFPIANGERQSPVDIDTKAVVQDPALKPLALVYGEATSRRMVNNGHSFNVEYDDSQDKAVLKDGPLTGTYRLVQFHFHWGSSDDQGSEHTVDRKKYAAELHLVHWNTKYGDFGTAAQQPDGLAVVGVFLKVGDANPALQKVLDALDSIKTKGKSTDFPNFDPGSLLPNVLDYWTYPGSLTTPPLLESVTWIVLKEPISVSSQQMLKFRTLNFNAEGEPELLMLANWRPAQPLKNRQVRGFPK

With `C1COCCN1.COc1ccc(P(=S)(S)N2CCOCC2)cc1` (stereo not shown) [GYY4137, reference compound] the “inhibition of cellular bioenergetics” value [1] was “No significant inhibition of cellular bioenergetics”, the “cytotoxicity, MTT assay, compared to DMSO vehicle” value ([2]; up to 30 μM) was “no significant cytotoxicity” and the “cytotoxicity, LDH assay, compared to DMSO vehicle” value ([3]; up to 30 μM) was “no significant cytotoxicity”.

For `[N-]=[N+]=Nc1ccc(COC(=S)Nc2ccc(F)cc2)cc1` [compound 1, O-(4-Azidobenzyl)-N-(4-fluorophenyl)thiocarbamate], the “H2S release upon injection of TCEP” value [4] was “rapid release of H2S”, the “H2S formation before TCEP” value ([4]; no TCEP) was “did not result in H2S formation; also recorded: no H2S is formed” and the “time to NMR changes showing self-immolation after TCEP addition” value [5] was at most 5 min.

For `Fc1ccc(NC(=S)OCc2ccccc2)cc1` [TCM-1], the “H2S release upon UV irradiation with CA” value ([6]; UV 10 min, CA 25 μg/mL) was “did not release H2S”, the “H2S release upon treatment with H2O2” value [7] was “did not release H2S” and the “cell viability (cytotoxicity)” value [8] was “No significant decrease in cell viability”. The “cell viability / protection against H2O2-mediated oxidative stress” value (“cell viability / protection” for short) [9] was “no protection”.

In the case of `[N-]=[N+]=Nc1ccc(COC(=O)Nc2ccc(F)cc2)cc1` [compound 2, O-(4-Azidobenzyl)-N-(4-fluorophenyl)carbamate], the “H2S release upon injection of TCEP” value [4] is reported as “no H2S was produced”.

In the case of `NC(=S)OCc1ccccc1` [compound 7], the ATP synthesis [1] is reported as “no effect”, the maximal respiration [1] is reported as “only slightly decreased maximal respiration at 10 μM” and the “oxygen consumption linked with basal respiration” value (from here on “oxygen consumption linked”) [1] is reported as “no effect”. The “cell viability (MTT reduction)” value ([2]; 10 μM, 24 hours) was “not observed”, the “direct cleavage of benzyl thiocarbamate moiety by PLE” value ([10]; control lacking the ester trigger) was “not cleaved directly by PLE” and the LDH levels [3] was “not observed”.

In the case of `O=[N+]([O-])c1ccccc1COC(=S)Nc1ccc(F)cc1` [PhotoTCM-1], the “peaking time for H2S release” value [6] is reported as about 10 min, the “H2S generation in the absence of UV irradiation” value ([6]; PBS pH 7.4, no UV) is reported as “did not generate H2S” and the “H2S release upon UV irradiation with CA” value ([6]; UV 10 min, CA 25 μg/mL) is reported as “significant enhancement of H2S concentration”. The “H2S upon UV irradiation in the absence of CA” value ([6]; UV 10 min, no CA) was “low levels of H2S”, the “H2S upon UV irradiation with CA and acetazolamide (AAA)” value ([6]; UV, CA 25 μg/mL, AAA 10 μM) was “significantly reduced” and the “H2S generation with cellular nucleophiles” value ([6]; cysteine, homocysteine, GSH, GSSG, serine, lysine, in the presence of CA) was “does not generate H2S”.

With `[N-]=[N+]=Nc1ccc(COC(=S)Nc2ccc3c(c2)Oc2ccccc2C32OC(=O)c3ccccc32)cc1` (stereo not shown) [MeRho-TCA, O-(4-Azidobenzyl)-N-methylrhodolthiocarbamate] the fluorescence turn-on ([11]; 50 equivalents of NaSH, PBS, 1 mM CTAB, pH 7.4, over 90 minutes) was 65 fold and the “selectivity of fluorescence response” value ([11]; vs Cys, GSH, Hcy, S2O3 2-, SO3 2-, SO4 2-, H2O2, NO) was “excellent selectivity for H2S over other RSONs”.

With `O=C(CCCCCCCCC[P+](c1ccccc1)(c1ccccc1)c1ccccc1)Oc1ccc(-c2cc(=S)ss2)cc1.[Br-]` [AP39, reference compound] the “inhibition of cellular bioenergetics” value [1] was “No significant inhibition of cellular bioenergetics”, the “cytotoxicity, MTT assay” value ([2]; at 30 μM) was “minimal cytotoxicity” and the “cytotoxicity, MTT assay” value [2, 20] was “none”. For the same compound, the “cytotoxicity, LDH assay” value ([3]; at 30 μM) was “minimal cytotoxicity” and the “cytotoxicity, LDH assay” value [3, 20] was “none”.

With `Cc1ccc(NC(=O)OCc2ccc(OC(=O)C(C)(C)C)cc2)cc1` [compound 6] the ATP synthesis [1] was “increases”, the maximal respiration [1] was “did not negatively impact” and the “oxygen consumption linked” value [1] was “increases”. For the same compound, the LDH levels [3] was “not observed”.

In the case of `O=C=S` [COS, carbonyl sulfide], the “H2S from COS after H2O2 addition” value [21] is reported as “rapid H2S generation”, the “H2S from COS prior to H2O2 addition” value [21] is reported as “No H2S was detected” and the “H2S production from COS” value ([12]; COS gas in deoxygenated PBS, 1 mM CTAB, pH 7.4, with CA) is reported as “rapid H25 production”. The “H2S formation from COS” value ([12]; buffer in the absence of CA) was “negligible current; also recorded: minimal H2S formation”.

In the case of `Cc1ccc(NC(=S)OCc2ccccc2)cc1` [TCM-2], the “H2S release upon treatment with H2O2” value [7] is reported as “did not release H2S”.

For `CC1(C)OB(c2ccc(COC(=S)Nc3ccc(F)cc3)cc2)OC1(C)C` [PeroxyTCM-1], the “HSN2 signal after addition of PMA” value ([13]; 500 nM PMA) was “significant increase in signal from HSN2”, the “HSN2 signal in the absence of PMA” value ([13]; HSN2 5 μM) was “no fluorescent signal from HSN2” and the “HSN2 fluorescence after addition of H2O2” value ([14]; H2O2 25 μM or 50 μM) was “H2O2 dose-dependent increase in HSN2 fluorescence”. The “HSN2 fluorescence in the absence of H2O2” value ([14]; HSN2 5 μM) was “no HSN2 fluorescence was observed”, the H2S release efficiency ([7]; 250 μM H2O2) was 80% and the H2S release efficiency ([7]; 500 μM H2O2) was 60%. For the same compound, the “cell viability (cytotoxicity)” value [8] was “No significant decrease in cell viability”, the “cell viability / protection” value [9] was “significant dose-dependent increase of cell viability” and the “H2S release with H2O2 in the absence of CA” value (H2O2 10 equiv, no CA) was “positive H2S release response”. The “H2S release after incubation with H2O2, O2−, or ONOO−” value ([15]; 50 μM compound, RSONS 500 μM, CA 25 μg/mL, 20 min) was “resulted in H2S release” and the “H2S release after incubation with other RSONS” value ([15]; ClO−, HO, 1O2, TBHP, tBuO, Cys, GSH, GSSG, GSNO, NO2, SO4 2−, S2O3 2−, NO, HNO) was “failed to release H2S”.

In the case of `Cc1ccc(NC(=S)OCc2ccc(N=[N+]=[N-])cc2)cc1` [compound 4], the “total sulfide levels in blood” value [16] is reported as “increased total sulfide levels in blood”.

With `CC1(C)OB(c2ccc(COC(=O)Nc3ccc(F)cc3)cc2)OC1(C)C` [PeroxyCM-1] the “cell viability (cytotoxicity)” value [8] was “No significant decrease in cell viability” and the “cell viability / protection” value [9] was “attenuated rescue from oxidative stress”.

In the case of `Cc1ccc(NC(=S)OCc2ccc(OC(=O)C(C)(C)C)cc2)cc1` [compound 5], the “stability in aqueous solution” value [17] is reported as “stable”, the ATP synthesis [1] is reported as “negatively affected” and the maximal respiration [1] is reported as “negatively affected”. For the same compound, the “oxygen consumption linked” value [1] was “negatively affected”, the “cytotoxicity during live cell imaging” value [18] was “high cytotoxicity” and the “fluorescence response of MeRho-Az” value [19] was “fluorescence turn-on consistent with H2S release”. For the same compound, the “H2S release with PLE” value ([10]; 1 U/mL PLE in the presence of CA) was “immediate H2S release”, the “H2S release with increased PLE” value ([10]; 20 U/mL PLE, otherwise identical conditions) was “significantly faster H2S release” and the “rate of H2S production with acetazolamide (AAA)” value ([10]; PLE, CA, CA inhibitor AAA) was “significantly reduced the rate of H2S production”. For the same compound, the “H2S generation without esterase” value ([10]; pH 7.4 PBS, CA 25 μg/mL, no PLE) was “did not result in H2S generation” and the LDH levels [3] was “increase in LDH levels”.

In the case of `O=C(Nc1ccc(F)cc1)OCc1ccccc1[N+](=O)[O-]` [PhotoCM-1], the “H2S release upon UV irradiation with CA” value ([6]; UV 10 min, CA 25 μg/mL) is reported as “no H2S release was observed”.

For `COc1cc(COC(=S)Nc2ccc(F)cc2)c([N+](=O)[O-])cc1OC` [PhotoTCM-2], the “peaking time for H2S release” value [6] was about 10 min.

For `Cc1ccc(NC(=S)OCc2ccccc2)cc1` [compound 3, O-(4-Benzyl)-N-tolylthiocarbamate], the “total sulfide levels in blood” value [16] was “Only samples containing donor 4 with the azide trigger increased total sulfide levels”.
